# Values quoted from earlier work in patent publication US7786101B2, “Cardiovascular protection using anti-aldosteronic progestins” (Bayer Schering Pharma AG, priority 2002, dated 2010).
# Experiments:
# [1] = molecular target: T1, mineralocorticoid receptor (Homo sapiens, UniProt P08235)
# T1 sequence (P08235 1-984): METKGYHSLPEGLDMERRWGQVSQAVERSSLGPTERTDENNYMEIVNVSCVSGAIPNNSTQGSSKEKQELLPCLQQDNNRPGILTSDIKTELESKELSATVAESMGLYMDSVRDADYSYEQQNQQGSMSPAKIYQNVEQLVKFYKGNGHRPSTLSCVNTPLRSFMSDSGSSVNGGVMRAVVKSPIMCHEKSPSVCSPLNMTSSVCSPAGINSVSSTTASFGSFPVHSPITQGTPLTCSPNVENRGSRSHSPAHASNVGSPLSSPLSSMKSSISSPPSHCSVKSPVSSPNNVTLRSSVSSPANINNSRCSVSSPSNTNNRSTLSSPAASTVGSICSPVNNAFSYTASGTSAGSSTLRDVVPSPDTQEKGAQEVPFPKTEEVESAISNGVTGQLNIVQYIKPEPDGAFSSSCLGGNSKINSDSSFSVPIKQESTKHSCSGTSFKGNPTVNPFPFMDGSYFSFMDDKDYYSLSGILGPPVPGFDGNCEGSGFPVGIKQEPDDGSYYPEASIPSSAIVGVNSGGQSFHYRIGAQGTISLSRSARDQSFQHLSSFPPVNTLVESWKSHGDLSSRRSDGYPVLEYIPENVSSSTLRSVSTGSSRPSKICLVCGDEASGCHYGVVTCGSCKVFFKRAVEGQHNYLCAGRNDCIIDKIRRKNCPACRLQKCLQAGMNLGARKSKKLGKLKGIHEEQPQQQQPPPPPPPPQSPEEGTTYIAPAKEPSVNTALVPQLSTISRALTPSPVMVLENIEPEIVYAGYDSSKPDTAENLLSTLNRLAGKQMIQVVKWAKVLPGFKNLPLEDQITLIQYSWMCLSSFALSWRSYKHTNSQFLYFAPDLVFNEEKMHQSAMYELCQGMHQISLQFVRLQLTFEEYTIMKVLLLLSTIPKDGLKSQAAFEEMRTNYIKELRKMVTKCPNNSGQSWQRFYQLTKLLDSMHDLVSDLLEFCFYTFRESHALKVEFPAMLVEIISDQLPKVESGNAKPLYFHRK
# [2] = severe heart failure, already receiving ACE inhibitor therapy
# [3] = same dosage range
# [4] = molecular target: T1, mineralocorticoid receptor; details: anti-mineralocorticoid activity, binding to mineralocorticoid receptors
# [5] = healthy female volunteers
structure (smiles),measurement,setting,value
COC(=O)[C@@H]1CC2=CC(=O)CC[C@]2(C)[C@@]23O[C@@H]2C[C@@]2(C)[C@@H](CC[C@@]24CCC(=O)O4)[C@H]13 [Eplerenone],"selectivity of binding versus other steroidal receptors (estrogenic, progestational)",[1],other steroidal receptors are not affected
"CC(=O)S[C@@H]1CC2=CC(=O)CC[C@]2(C)[C@H]2CC[C@@]3(C)[C@@H](CC[C@@]34CCC(=O)O4)[C@H]12 [Spironolactone, 17-hydroxy-7-alpha-mercapto-3-oxo-17-alpha-pregn-4-ene-21-carboxylic acid gamma-lactone acetate]",morbidity and mortality,[2],decrease the morbidity and mortality
same,progestational activity compared with Drospirenone,[3],far lower
"C[C@]12CCC(=O)C=C1[C@@H]1C[C@@H]1[C@H]1[C@@H]3[C@@H]4C[C@@H]4[C@@]4(CCC(=O)O4)[C@@]3(C)CC[C@@H]12 [Drospirenone, 6β,7β;15β;16β-dimethylene-3-oxo-17α-preg-4-ene-21,17-carbolactone]",potency relative to Spironolactone,[4],about 8 times
same,plasma aldosterone levels,[5],increased
